Reference: US12226395B2, “Composition for preventing or treating neurodegenerative diseases, containing diterpene-based compound” (KOREA RESEARCH INSTITUTE OF BIOSCIENCE AND BIOTECHNOLOGY, priority 2017, dated 2025)
Like-named read-outs stand apart in the source and are kept apart here.

Assays:
Format in all cases: cell-based
[1] = molecular target: T1, Nurr1 (Homo sapiens, UniProt P43354); assay: Nurr1 activity, luciferase reporter analysis in transfected BE(2)C cells; details: for Nurr1 activity (luciferase), multiple of 0.1% DMSO control: BE(2)C cells, 20 hours
T1 construct: 3 types of plasmid DNA, including DNA containing Nurr1-LBD and DNA with β-galactosidase, were transfected into BE(2)C cells; expressed in transfected cells; host or cells: BE(2)C cells
Excerpt: As in Example 2, Nurr1 activity according to the concentration of the diterpene isolated from the extract of Daphne genkwa was confirmed through luciferase analysis.
Specifically, after synthesizing a vector in which the gene having the nucleotide sequence (5′-CTCGGAGGACAGTACTCCG-3 SEQ ID NO:1) to which the GLA4 gene can bind is repeated 8 times to the reporter gene, luciferase, is synthesized, 3 types of plasmid DNA, including DNA containing Nurr1-LBD and DNA with β-galactosidase, were transfected into BE(2)C cells. After 6 hours, the compounds 1 to 10 separated in Example 2 were treated according to the concentrations in Table 1 below. The cells thus treated were cultured in a 5% carbon dioxide incubator at 37° C. for 20 hours, and then luciferase analysis was performed. As a control, 0.1% DMSO was used, and at this time, the activity was increased by multiple, and Amodiaquine was used as a positive control.

[2] = tested on: nitric oxide production in microglia BV-2 cells; assay: Inhibition of nitric oxide production in LPS-treated microglia BV-2 cells (Griess reagent); details: Mus musculus
Excerpt: The death of cranial nerve cells due to an inflammatory reaction in a microglia cell has been reported as one of the main causes of degenerative brain diseases such as dementia and Parkinson's disease. (Sarkar S et al., Neurotoxicology, 44, 250-262 (2014); Bower J H et al., Neurology, 67, 494-496 (2006)). Accordingly, the inhibition activity on nitric oxide production, a representative inflammatory factor, was investigated for the compounds isolated from Example 2 in a microglia. Specifically, microglia BV-2 cells were put into a 96-well plate at 5×10^4 cells/well, and cultured for 2 days, followed by incubation with LPS ([…]) for 24 hours with the compound isolated in Example 2 above. The culture supernatant was measured for absorbance at 540 nm using the Griess reagent to quantify nitrite to investigate the amount of nitric oxide production. Minocyline was used as a positive control.

[3] = molecular target: T1, Nurr1; assay: Nurr1 activity, luciferase reporter analysis in transfected BE(2)C cells; details: for Nurr1 activity (luciferase), multiple of 0.1% DMSO control: BE(2)C cells, 20 hours; remark: listed apart in the source
[4] = High concentration = 10 μM (Table 1)
[5] = Low concentration = 0.1 μM (Table 1)
[6] = Mid concentration = 1 μM (Table 1)
[7] = BV-2 cells, LPS 24 hours, nitrite by Griess reagent, read-out: IC50, inhibition of nitric oxide production (Table 4)
[8] = BV-2, 24 h, read-out: IC50, inhibition of nitric oxide production (Table 4)

T1 sequence (P43354 360-595 limits assumed): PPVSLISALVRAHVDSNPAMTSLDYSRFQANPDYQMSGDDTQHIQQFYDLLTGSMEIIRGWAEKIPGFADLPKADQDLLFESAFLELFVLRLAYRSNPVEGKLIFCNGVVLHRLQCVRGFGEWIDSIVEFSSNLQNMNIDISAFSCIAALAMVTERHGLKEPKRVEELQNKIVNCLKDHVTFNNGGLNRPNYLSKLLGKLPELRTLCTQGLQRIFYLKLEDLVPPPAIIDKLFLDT

| Compound | Nurr1 activity (luciferase), multiple of 0.1% DMSO control [1, 4] | Nurr1 activity (luciferase), multiple of 0.1% DMSO control [1, 5] | Nurr1 activity (luciferase), multiple of 0.1% DMSO control [1, 6] | IC50 [2, 7] | further results |
| --- | --- | --- | --- | --- | --- |
| C=C(C)[C@]12C[C@@H](C)[C@@]34O[C@](c5ccccc5)(O[C@@H]1C3[C@H](O)[C@@](O)(CO)[C@@H](O)[C@@]1(O)C4C=C(C)[C@@H]1O)O2 (stereo partly drawn) [Formula 7, (2S,3aR,4S,5S,6S,6aR,7S,9bR,10R,11aR)-5-(hydroxymethyl)-8,10-dimethyl-2-phenyl-11a-(prop-1-en-2-yl)-3a,3b,4,5,6,7,9a,10,11,11a-decahydro-6aH-2,9b-epoxyazuleno[5′,4′:3,4]benzo[1,2-d][1,3]dioxole-4,5,6,6a,7-pentaol] | 2.0 | 1.2 | 2.6 | 3.41 ± 0.99 µM | – |
| CN(C)c1ccc(O)c2c1C[C@H]1C[C@H]3[C@H](N(C)C)C(O)=C(C(N)=O)C(=O)[C@@]3(O)C(O)=C1C2=O [Minocycline, reference compound] | – | – | – | 21.3 ± 0.48 µM | – |
| CCN(CC)Cc1cc(Nc2ccnc3cc(Cl)ccc23)ccc1O [AQ, Amodiaquine, reference compound] | – | – | – | – | Nurr1 activity (luciferase), multiple of 0.1% DMSO control ([3]; Low concentration = 5 μM (Table 1)): 0.9; Nurr1 activity (luciferase), multiple of 0.1% DMSO control ([3]; Mid concentration = 20 μM (Table 1)): 1.8 |
| C=C(C)[C@]12C[C@@H](C)[C@@]34O[C@](c5ccccc5)(O[C@@H]1C3[C@@H]1O[C@]1(CO)[C@@H](O)[C@]1(O)C(=O)[C@@H](C)CC41)O2 (stereo partly drawn) [Formula 9, (2S,3aR,3cS,4aR,5S,5aS,7S,8bR,9R,10aR)-5,5a-dihydroxy-4a-(hydroxymethyl)-7,9-dimethyl-2-phenyl-10a-(prop-1-en-2-yl)dodecahydro-6H-2,8b-epoxyoxireno[2″,3″:6′,7′]azuleno[5′,4′:3,4]benzo[1,2-d][1,3]dioxol-6-one] | 1.5 | 1.7 | 2.4 | 1.6 ± 0.37 µM | – |
| C=C(C)[C@]12C[C@@H](C)[C@@]34O[C@](c5ccccc5)(O[C@@H]1C3[C@@H]1O[C@]1(COC(=O)c1ccccc1)[C@@H](O)[C@@]1(O)C4C[C@H](C)[C@@H]1O)O2 (stereo partly drawn) [Formula 4, ((2S,3aR,3cS,4aR,5S,5aR,6S,7S,8bR,9R,10aR)-5,5a,6-trihydroxy-7,9-dimethyl-2-phenyl-10a-(prop-1-en-2-yl)dodecahydro-4aH-2,8b-epoxyoxireno[2″,3″:6′,7′]azuleno[5′,4′:3,4]benzo[1,2-d][1,3]dioxol-4a-yl)methyl benzoate] | 1.7 | 1.0 | 1.4 | – | IC50 [2, 8]: 0.18 ± 0.04 µM |
| C=C(C)[C@]12C[C@@H](C)[C@@]34O[C@](c5ccccc5)(O[C@@H]1C3[C@@H]1O[C@]1(CO)[C@@H](O)[C@@]1(O)C4C[C@H](C)[C@@H]1OC(=O)/C=C/C=C/CCCCC)O2 (stereo partly drawn) [compound 12, (2S,3aR,3cS,4aR,5S,5aS,6S,7S,8bR,9R,10aR)-5,5a-dihydroxy-4a-(hydroxymethyl)-7,9-dimethyl-2-phenyl-10a-(prop-1-en-2-yl)dodecahydro-6H-2,8b-epoxyoxireno[2″,3″:6′,7′]azuleno[5′,4′:3,4]benzo[1,2-d][1,3]dioxol-6-yl (2E,4E)-deca-2,4-dienoate] | – | – | – | – | Nurr1 activity (Table 3), relative to control treatment ([3]; 0.03 μM): 1.4 ± 0.18; Nurr1 activity (Table 3), relative to control treatment ([3]; 0.1 μM): **1.29 ± 0.04; Nurr1 activity (Table 3), relative to control treatment ([3]; 0.3 μM): *1.33 ± 0.06; Nurr1 activity (Table 3), relative to control treatment ([3]; 1 μM): *1.62 ± 0.21; IC50 ([2]; BV-2 cells, LPS 24 hours, nitrite by Griess reagent, read-out: IC50, inhibition of nitric oxide production (Table 5)): 2.3 µM |
| C=C(C)[C@]12C[C@@H](C)[C@@]34OC(c5ccccc5)(O[C@@H]1C3[C@@H]1O[C@]1(CO)[C@@H](O)[C@]13OC(=O)O[C@H]1[C@@H](C)CC43)O2 (stereo partly drawn) [Formula 10, genkwanin I] | – | – | – | 7.79 ± 0.91 µM | Nurr1 activity (luciferase), multiple of 0.1% DMSO control ([3]; High concentration = 100 μM (Table 1)): 1.1; Nurr1 activity (luciferase), multiple of 0.1% DMSO control ([3]; Low concentration = 1 μM (Table 1)): 1.8; Nurr1 activity (luciferase), multiple of 0.1% DMSO control ([3]; Mid concentration = 10 μM (Table 1)): 1.9 |
| C=C(C)[C@@]12O[C@@]3(c4ccccc4)O[C@@H]1C1[C@@H]4O[C@]4(CO)[C@@H](O)[C@]4(O)C(=O)C(C)=CC4[C@@]1(O3)[C@H](C)[C@H]2OC(C)=O (stereo partly drawn) [Formula 1, (2S,3aR,3cS,4aR,5S,5aS,8bR,9R,10R,10aS)-5,5a-dihydroxy-4a-(hydroxymethyl)-7,9-dimethyl-6-oxo-2-phenyl-10a-(prop-1-en-2-yl)-3a,3b,3c,4a,5,5a,8a,9,10,10a-decahydro-6H-2,8b-epoxyoxireno[2″,3″:6′,7′]azuleno[5′,4′:3,4]benzo[1,2-d][1,3]dioxol-10-yl acetate] | – | – | – | 0.37 ± 0.15 µM | Nurr1 activity (luciferase), multiple of 0.1% DMSO control ([1]; High concentration = 1 μM (Table 1)): 1.7; Nurr1 activity (luciferase), multiple of 0.1% DMSO control ([1]; Low concentration = 0.01 μM (Table 1)): 1.0; Nurr1 activity (luciferase), multiple of 0.1% DMSO control ([1]; Mid concentration = 0.1 μM (Table 1)): 1.5 |
| C=C(C)[C@@]12O[C@@]3(/C=C/C=C/CCCCC)O[C@@H]1[C@@H]1[C@@H]4O[C@]4(CO)[C@@H](O)[C@]4(O)C(=O)C(C)=C[C@H]4[C@@]1(O3)[C@H](C)[C@H]2OC(C)=O [compound 15, prostratin Q] | – | – | – | – | Nurr1 activity (Table 3), relative to control treatment ([3]; 0.03 μM): 1.17 ± 0.22; Nurr1 activity (Table 3), relative to control treatment ([3]; 0.1 μM): 1.28 ± 0.35; Nurr1 activity (Table 3), relative to control treatment ([3]; 0.3 μM): **1.59 ± 0.08; Nurr1 activity (Table 3), relative to control treatment ([3]; 1 μM): *2.12 ± 0.37; IC50 ([2]; BV-2, 24 h, read-out: IC50, inhibition of nitric oxide production (Table 5)): 3.73 µM |
| C=C(C)[C@]12C[C@@H](C)[C@@]34O[C@](c5ccccc5)(O[C@@H]1C3[C@@H]1O[C@]1(CO)[C@@H](O)[C@@]1(O)C4C[C@H](C)[C@@H]1O)O2 (stereo partly drawn) [Formula 8, (2S,3aR,3cS,4aR,5S,5aR,6S,7S,8bR,9R,10aR)-4a-(hydroxymethyl)-7,9-dimethyl-2-phenyl-10a-(prop-1-en-2-yl)dodecahydro-5aH-2,8b-epoxyoxireno[2″,3″:6′,7′]azuleno[5′,4′:3,4]benzo[1,2-d][1,3]dioxole-5,5a,6-triol] | 1.6 | 1.7 | 2.0 | 1.22 ± 0.13 µM | Nurr1 activation (in words) ([1]; no concentration stated): better effect of increasing Nurr1 activity |
| C=C(C)[C@]12C[C@@H](C)[C@@]34O[C@](c5ccccc5)(O[C@@H]1C3[C@H](O)[C@@](O)(COC(=O)c1ccccc1)[C@@H](O)[C@@]1(O)C4C[C@H](C)[C@@H]1O)O2 (stereo partly drawn) [Formula 3, ((2S,3aR,4S,5S,6S,6aR,7S,8S,9bR,10R,11aR)-4,5,6,6a,7-pentahydroxy-8,10-dimethyl-2-phenyl-11a-(prop-1-en-2-yl)dodecahydro-5H-2,9b-epoxyazuleno[5′,4′:3,4]benzo[1,2-d][1,3]dioxol-5-yl)methyl benzoate] | 1.4 | 1.2 | 1.4 | – | IC50 [2, 8]: 1.06 ± 0.12 µM |
